From patent US20030153544A1, “Fatty acid derivatives” (priority 1997, published 2003)

Legend:
[1] = drug toxicity LD50 in tumour-bearing mice, single intraperitoneal dose; format: in vivo, BALB/C female mice; conditions: for LD50 at 10 days: female, BALB/C, mouse, in vivo, ip, read-out: Mother compound LD50
Procedure: (§1) Murine solid ADJ/PC6 plasmacytoma and its subline selected for resistance to cisplatin and other alkylating agents was implanted subcutaneously as 1 mm^3 tumour fragments into BALB/C female mice weighing 20-25 grams. Melphalan or melphalan-elaidic amide, or chlorambucil or chlorambucil-oleylester, were administered by intraperitoneal, single dose 20 days post subcutaneous tumour implantation. Tumours were dissected on day 30, and weights of control and treated groups were compared. Activity was based on the measurement of drug toxicity, LD50 in mg/kg compared to anti-tumour effect measured as ED90, the dose in mg/kg required to reduce tumour mass by 90% compared to controls.

ADJ/PC6 plasmacytoma = experiment: antitumour effect in vivo, murine subcutaneous ADJ/PC6 plasmacytoma (sensitive); conditions: i.p. single dose day 20, tumours weighed day 30
Procedure: as §1

[2] = tested on: cisplatin-resistant subline of ADJ/PC6 plasmacytoma; experiment: antitumour effect in vivo, cisplatin-resistant subline of ADJ/PC6 plasmacytoma; design: species or system murine
Procedure: as §1

[3] = tested on: granuloma induced cartilage degradation; conditions: daily oral; for glycosaminoglycan content of implanted cartilage, less than liposome-treated control group / hydroxyproline content of implanted cartilage, less than liposome-treated control group / reduction of granuloma tissue dry weight versus liposome-treated control / reduction of fluid mass of the granulomas versus liposome-treated control: naproxen 30 mg/kg, derivatives 60 mg/kg; for glycosaminoglycan content of implanted cartilage, less than liposome-treated control group / hydroxyproline content of implanted cartilage, less than liposome-treated control group: implants 2 weeks; for reduction of granuloma tissue dry weight versus liposome-treated control / reduction of fluid mass of the granulomas versus liposome-treated control: liposomes; for reduction of granuloma tissue dry weight versus liposome-treated control: control 14.36 mg; for reduction of fluid mass of the granulomas versus liposome-treated control: control 62.69 mg
Excerpt: The in vivo model of granuloma induced cartilage degradation which was employed involves the implantation of sterile cotton-wrapped rat femoral head cartilage subcutaneously on the backs of mice. The cotton provokes a granulomatous response with a demonstrable T cell involvement which leads to loss of matrix compounds from the implanted cartilage. […] It involves chronic erosive disease with quantitative biochemical end points for determining the loss of cartilage matrix. Antiinflammatory activity can be judged from the wet and dry mass of the cotton granuloma, chondroprotective activity can be determined from glycosaminoglycan and hydroxyproline content (indicative of proteoglycan and collagen respectively) of the implanted cartilage.
Groups of female (n=10) TO mice (21±4 g) received a subcutaneous implant of cotton-wrapped rat femoral head cartilage. At 2 weeks the implants were removed. The cotton provoked a granulomatous response with concomitant release of proteoglycan from the implanted cartilage. The effects of daily oral administration of equimolar amounts of naproxen (30 mg/kg) and naproxen derivatives (60 mg/kg) on granuloma development and cartilage proteoglycan content were assessed. The compounds were formulated as liposomes with empty liposomes acting as vehicle control.
A 15 mg/ml liposomal formulation is prepared by the 1:1 (w/w) mixing of the specific lipid derivatives (in DMSO) and lecithin (in ethanol) in a glycerol/sterile water buffer with subsequent dialysis to remove the solvents. A 7.5 mg/ml liposomal formulation of the underivatised NSAID compounds is prepared by the addition of the specific compound to empty liposomes in glycerol/sterile water.
Results were analysed with INSTAT using Mann-Whitney and with p values corrected for ties. Values of p<0.05 were taken as significant.

[4] = tested on: COR-L23/P and its resistant cell line COR-L23/R; format: cell-based, human; conditions: for cellular accumulation (concentration) in COR-L23/R compared with COR-L23/P: drugs at 20 μM, FIG. 11; for fluorescence due to uptake in resistant and non-resistant cells: drug concentration 10 μM, FIG. 12
Procedure: Cells were exposed in suspension at 2×10^5/ml to drugs at 20 μM. Aliquots were taken at various times and rinsed in ice cold PBS before being passed through the flow cytometre.
Cells were exposed to Daunorubicine, Daunorubicine elaidic amide and Daunorubicine oleic carbamate, as described above. Drug concentration was reduced to 10 μM.

[5] = tested on: rat peritoneal monocytes/macrophages; experiment: effect on rat peritoneal monocytes/macrophages after intraperitoneal injection (cell counts, chemoluminescence on stimulation); format: in vivo; conditions: for activity (chemoluminescence) of zymosan stimulated peritoneal cells: 6, 12, 25, 48 and 72 hours post treatment, FIG. 5
[6] = tested on: endotoxin induced airway changes; experiment: endotoxin (LPS) induced airway changes in rats, airway hyperresponsiveness model; format: in vivo, F344 rats
Procedure: In a model of acute inflammatory airway changes in rats, the animals are exposed to aerosolized endotoxin (LPS). […] 10 male F344 rats were exposed to 100 μg/ml LPS for 30 minutes in a chamber. 12 and 4 hours prior to aerosol exposure the animals were treated with either prednisolone or the prednisolone derivative by instillation, 3 mg/kg. 90 minutes after the end of the aerosol exposure, the animals were prepared for assessment of airway responsiveness to 5-hydroxytryptamine and evaluation of airway inflammation. 5HT was added intravenously every 5 minutes until minimum 50% increase in lung resistance is observed, and the amount of 5 HT necessary to increase the lung resistance with 50%, PC50RL was calculated.

[7] = tested on: H69/LX4, human small lung cell line, overexpressing PgP
Excerpt: An MTT assay was used to determine the toxicity of compounds. The cells were exposed to the compounds for 6 days prior to assaying. The cell line used was H69/LX4, human small lung cell line, overexpressing PgP.

[8] = tested on: NK65 strain drug sensitive P. berghei; experiment: 4-day test in P. berghei infected mice; format: in vivo; conditions: for ED50: Plasmodium berghei, ip, 96 h, 50% reduction in parasites in blood, read-out: ED50 value (SE); for ED50 / ED90 value / ED99 value: i.p. for 4 days, elaidate values × 433/600; for ED90 value: 90% reduction in parasites in blood; for ED99 value: 99% reduction in parasites in blood
Procedure: A 4-day test in NK65 strain drug sensitive P. berghei was carried out in Swiss albino female mice with doses of 0.063, 0.25, 1.0 and 4 mg/kg hydroxychloroquine-elaidate and 0.094, […], 1.5 and 6 mg/kg hydroxychloroquine given intraperitoneally for 4 days to groups of 3 mice per group. The parasite inoculum of 10^7 infected cells was given intravenously on day 0 and follwoed by the drug dose for that day. The animals were dosed for the 3 following days and on the 5th day tail blood films were prepared for parasitaemia estimation. […] These findings could be of great importance in the treatment of malaria in man.
The effective doses giving 50%, 90% and 99% reduction in P. berghei malaria parasites in the blood of mice with either hydroxychloroquine sulphate or hydroxychloroquine-elaidate is shown in this table.

[9] = i.p. single dose day 20, tumours weighed day 30

## CCCCCCCC/C=C/CCCCCCCC(=O)NC(Cc1ccc(N(CCCl)CCCl)cc1)C(=O)O (stereo not shown) [melphalan-elaidic amide, Elaidic acid melphalan amide]
[1]
  Derivative LD50: 180 mg/kg
ADJ/PC6 plasmacytoma
  ED90, dose required to reduce tumour mass by 90% compared to controls: ED90 was achieved
[2]; [9]
  ED90, dose required to reduce tumour mass by 90% compared to controls: 60 mg/kg
[2]; i.p. single dose day 20, tumours weighed day 30, listed as melphalan-elaidic acid amide
  ED90, dose required to reduce tumour mass by 90% compared to controls: ED90 was achieved

## CCCCCCCC/C=C\CCCCCCCCOC(=O)[C@@H](C)c1ccc2cc(OC)ccc2c1 (stereo in doubt) [naproxen oleyl ester, S(+)-2-(6-methoxy-2-naphthyl)propionic acid-cis-9′-octadecenyl-ester]
[3]
  glycosaminoglycan content of implanted cartilage, less than liposome-treated control group: 12%
  hydroxyproline content of implanted cartilage, less than liposome-treated control group: 8%
[3]; 2 weeks
  reduction of granuloma tissue dry weight versus liposome-treated control: 12%
  reduction of fluid mass of the granulomas versus liposome-treated control: 14%

## COc1cccc2c1C(=O)c1c(O)c3c(c(O)c1C2=O)C[C@@](O)(C(=O)CO)C[C@@H]3O[C@H]1C[C@H](N)[C@H](O)[C@H](C)O1 [Doxorubicine, reference compound]
[4]
  cellular accumulation (concentration) in COR-L23/R compared with COR-L23/P: much lower in the resistant cell line

## CCCCCCCC/C=C\CCCCCCCCOc1ccc2cc([C@H](C)C(=O)O)ccc2c1 (stereo in doubt) [naproxen oleyl ether, S(+)-2-(6-[cis-9′-octadecenoxy]-2-naphthyl)-propionic acid]
[3]; 2 weeks
  reduction of granuloma tissue dry weight versus liposome-treated control: 16%
  reduction of fluid mass of the granulomas versus liposome-treated control: 9%

## CCCCCCCC/C=C\CCCCCCCCNC(=O)[C@@H](C)c1ccc2cc(OC)ccc2c1 (stereo in doubt) [naproxen oleyl amide, S(+)-2-(6-methoxy-2-naphthyl)propionic acid-(cis-9′-octadecenyl)-amide]
[3]
  glycosaminoglycan content of implanted cartilage, less than liposome-treated control group: 11%
  hydroxyproline content of implanted cartilage, less than liposome-treated control group: 3%
[3]; 2 weeks
  reduction of granuloma tissue dry weight versus liposome-treated control: 38%
  reduction of fluid mass of the granulomas versus liposome-treated control: 22%

## C[C@]12C=CC(=O)C=C1CC[C@@H]1[C@@H]2[C@@H](O)C[C@@]2(C)[C@H]1CC[C@]2(O)C(=O)CO [prednisolone, 11β, 17α, 21-trihydroxypregna-1,4-diene-3,20-dione, reference compound]
[5]; i.p. 4 ml at 10 mg/ml
  activity (chemoluminescence) of zymosan stimulated peritoneal cells: slight reduction of the chemoluminescence at 6 hours
[5]; i.p. 4 ml at 10 mg/ml, 6-72 hours, FIG. 8, FIG. 9
  number of macrophages in peritoneal lavage: much less pronounced, and only seen at 6 and 12 hours
[6]; instillation 3 mg/kg, 12 and 4 hours prior to LPS aerosol
  number of inflammatory cells in the bronchoalveolar fluid: Neither prednisolone nor the derivative did influence

## Elaidic acid daunorubicin amide [Daunorubicine elaidic amide]
[4]
  fluorescence due to uptake in resistant and non-resistant cells: more or less equal in the two cell types

## CCCCCCCC/C=C/CCCCCCCC(=O)OCC(=O)[C@@]1(O)CC[C@H]2[C@@H]3CCC4=CC(=O)C=C[C@]4(C)[C@H]3[C@@H](O)C[C@@]21C [prednisolone-elaidate, 11β, 17α, 21-trihydroxypregna-1,4-diene-3,20-dione-21-elaidate]
[5]; i.p. 10 mg/ml, 48 hours post treatment, FIG. 6
  chemiluminescence of stimulated peritoneal cells, comparison of 7 fatty acid esters of prednisolone: the best
[5]; i.p. 4 ml at 10 mg/ml
  activity (chemoluminescence) of zymosan stimulated peritoneal cells: reduced compared to control for up to 48 hours post treatment
[6]; rat, in vivo
  airway responsiveness to 5-hydroxytryptamine (PC50RL): affected to a surprisingly high extent
  number of inflammatory cells in the bronchoalveolar fluid: Neither prednisolone nor the derivative did influence

## N[C@@H](Cc1ccc(N(CCCl)CCCl)cc1)C(=O)O [Melphalan, L-3-[p-[bis(2-chlorethyl)amino]-phenyl]alanine, reference compound]
[1]
  LD50 at 10 days: 23 mg/kg
[2]; [9]
  ED90, dose required to reduce tumour mass by 90% compared to controls: no activity

## COc1ccc2cc([C@H](C)C(=O)O)ccc2c1 [naproxen, S(+)-2-(6-methoxy-2-naphthyl)propionic acid, reference compound]
[3]; 2 weeks, n=10
  implants lost through aggressive behaviour of the animals: 4 out of 10
[3]
  glycosaminoglycan content of implanted cartilage, less than liposome-treated control group: 16%
  hydroxyproline content of implanted cartilage, less than liposome-treated control group: 12%
[3]; 2 weeks
  reduction of granuloma tissue dry weight versus liposome-treated control: no effect
  reduction of fluid mass of the granulomas versus liposome-treated control: 12%

## CCCCCCCCC=CCCCCCCCCOC(=O)NC1CC(OC2CC(O)(C(C)=O)Cc3c(O)c4c(c(O)c32)C(=O)c2c(OC)cccc2C4=O)OC(C)C1O (stereo not drawn) [Daunorubicine oleic carbamate, N-(cis-9-octadecen-1-oxycarbonyl)daunorubicin]
[4]
  fluorescence due to uptake in resistant and non-resistant cells: more or less equal in the two cell types

## CCCCCCCCC=CCCCCCCCC(=O)NC1CC(OC2CC(O)(C(=O)CO)Cc3c(O)c4c(c(O)c32)C(=O)c2c(OC)cccc2C4=O)OC(C)C1O (stereo not shown) [Doxorubicine-elaidic-amide, Elaidic acid doxorubicin amide]
[4]
  cellular accumulation (concentration) in COR-L23/R compared with COR-L23/P: approximately the same
[7]
  IC50: > 50 µM

## CCCCCCCC/C=C\CCCCCCCCOC(=O)CCCc1ccc(N(CCCl)CCCl)cc1 [chlorambucil-oleylester, Chlorambucil-oleyl ester]
[1]
  Derivative LD50: >1600 mg/kg

## CCN(CCO)CCCC(C)Nc1ccnc2cc(Cl)ccc12 (stereo not shown) [Hydroxychloroquine sulphate, 7-chloro-4-[4-[ethyl(2-hydroxyethyl)amino]1-methylbutylamino]quinoline, reference compound]
[8]
  ED50: 1.74 mg/kg
  ED90 value: 2.75 mg/kg
  ED99 value: 4.52 mg/kg

## CCCCCCCC/C=C/CCCCCCCC(=O)OCCN(CC)CCCC(C)Nc1ccnc2cc(Cl)ccc12 (stereo not shown) [Hydroxychloroquine-elaidate, 7-chloro-4-[4-[ethyl(2-elaidoyloxyethyl)amino]1-methylbutylamino]-quinoline]
[8]
  ED50: 0.71 mg/kg
  ED90 value: 0.93 mg/kg
  ED99 value: 1.24 mg/kg
[8]; on a molar basis, 4 day test
  times more effective than hydroxychloroquine itself: 2.5- 3 times

## O=C(O)CCCc1ccc(N(CCCl)CCCl)cc1 [Chlorambucil, 4-[p-[bis(2-chlorethyl)amino]-phenyl]butyric acid, reference compound]
[1]
  LD50 at 10 days: 57 mg/kg

## CCCCCCCC/C=C\CCCCCCCCOC(=O)N[C@H]1C[C@H](O[C@H]2C[C@](O)(C(=O)CO)Cc3c(O)c4c(c(O)c32)C(=O)c2c(OC)cccc2C4=O)O[C@@H](C)[C@H]1O (relative stereo) [Doxorubicine-oleyl-carbamate, N-(cis-9-octadecen-1-oxycarbonyl)doxorubicin]
[4]
  cellular accumulation (concentration) in COR-L23/R compared with COR-L23/P: approximately the same
